Assay results: US8377900B2 (National Research Council of Canada, priority 2003, dated 2013)

Assays:
[1] = biological target: T1, chimeric transactivator λR-GyrB-NFκB (UniProt P03034+P0AES6); assay: Coumermycin-induced reporter (Luc/GFP) expression, transient transfection of 293A cells with wild type transactivator; type: cell-based, Human; details: 5 nM, 40 hr
T1 construct: the GyrB domain (codons 2-220 of bacterial DNA gyrase); expressed in transfected cells; host or cells: human embryonic kidney 293A cells, transient transfection with pGyrB plus reporter plasmid, or with pCUR
Description: FIG. 2A. Either two plasmids pGFP and pGyrB (double plasmids, each 0.5 μg), or one plasmid pCUR (1.0 μg) containing the GFP gene (single plasmid), were transiently transfected into 293A cells.
FIG. 2B. Either two plasmids pLuc and pGyrB (DP, each 0.2 μg), or one plasmid pCUR (0.4 μg) containing the Luc gene (SP), were transiently transfected into 293A cells, respectively. […] The results shown are the means for triplicate determinations and representative of 3 experiments. The transfection efficiencies were normalized by co-transfection of pRL-TK vector constitutively producing Renilla luciferase.
Exponentially growing 293A cells were seeded at 8×10^5 in 60 mm dishes the day prior to transfection and co-transfected with 5 μg of XmnI linearized pLuc and 0.2 μg of pcDNA3.1 hygromycin using the SuperFect kit (Qiagen). Alternatively, the cells were transfected with PvuI linearized pCUR. Two days following transfection, the cells were replaced into 100 mm dishes, and selected with appropriate antibiotics for 2 weeks. Single clone was selected for further assay. […] Luc activity was determined using 20 μl of total cell lysate using the Dual-Luciferase Reporter Assay System (Promega). The reporter firefly luciferase activities were measured and normalized by the transfection efficiencies estimated by the activities of Renilla luciferase constitutively expressed from cotransfected pRL-TK. […]

[2] = tested on: S92G-mutated chimeric λR-GyrB transactivator; assay: Coumermycin-dependent luciferase activity in stable 293A clones (pCUR, S92G transactivator); type: cell-based, Human
Description: FIG. 4B. […] Results represent two independent experiments performed in triplicate.
Alternatively, the cells were transfected with PvuI linearized pCUR. Two days following transfection, the cells were replaced into 100 mm dishes, and selected with appropriate antibiotics for 2 weeks. Single clone was selected for further assay. […] After 40 hrs induction, cells were lysed in 100 μl lysis buffer (Promega) for 20 min. Luc activity was determined using 20 μl of total cell lysate using the Dual-Luciferase Reporter Assay System (Promega). The reporter firefly luciferase activities were measured and normalized by the transfection efficiencies estimated by the activities of Renilla luciferase constitutively expressed from cotransfected pRL-TK. For inducible expression of the Bax gene, wild-type K562 cells were transfected using electroporation with 5 μg DNA of the linearized pBax and pGyrB. Cell lines were selected with hygromycin and positive clones were screened in the induced and non-induced states using anti-Bax antibody visualized by Western blot.
Cells were stably transfected with pCUR containing the Luc gene. […] Values are means of three independent luciferase determinations from three independently cell cultures.
The kinetic characteristics of this inducible system were further examined in stable cell lines.

K562-Bax cells = assay: Flow cytometric analysis of apoptosis (Annexin-V) in K562-Bax cells; type: cell-based, Human; details: 5 nM coumermycin, 36 hr; 6.7% without treatment
Source text: (§1) It has been reported that high-level expression of Bax (Bcl2-associated X protein) elicits apoptosis in a variety of human cancer cells (17). In malignant hematopoietic cells, including k562, Bax overexpression leads to apoptosis of the transfected cells through cytochrome C release (18). To evaluate the tightness of gene expression regulated by the chimeric transactivator, the apoptotic Bax gene was cloned into the transgene-expression cassette from the two-plasmid induction system previously described. […] Stable clones harboring the both plasmids were isolated and characterized following induction.

K562-Bax 65 cells = assay: Western blot of Bax expression and cytosolic cytochrome C in clone K562-Bax 65; type: cell-based, Human; details: 5 nM coumermycin, 36 hr
Source text: as §1

[3] = tested on: S92G-mutated chimeric λR-GyrB transactivator; type: cell-based, Human
Source text: FIG. 5A. […] Results represent two independent experiments performed in triplicate.
Results shown are the means for triplicate determinations and representative of 3 experiments.

293A cells = type: cell-based, Human; details: 25 μM, cell growth rate and CMV-GFP expression
Description: At a concentration of 5 μM novobiocin, however, over 98% of the coumermycin-induced luciferase expression was suppressed (FIG. 5A).

[4] = cited from earlier work

coumermycin
GFP expression ([1]; both plasmid systems): greatly induced | induction of luciferase activity ([1]; wild type λR, double- and single-plasmid cassettes): around 50 fold | induction time at which appreciable luciferase activity was detected ([2]; 5 nM coumermycin, clone S92G-5): 5 h | induction time for maximal inducibility ([2]; 5 nM coumermycin, clone S92G-5): 24 h | higher doses causing reduced induction of gene expression ([2]; FIG. 4A): > 0.5 µM | concentration at which inducibility was decreased ([2]; clone S92G-5, 40 hr): 50 nM | concentration for maximal induction ([2]; clone S92G-5, 40 hr): 2.5 to 5 nM | lowest concentration giving apparent induction of luciferase expression ([2]; clone S92G-5, 40 hr): approximately 0.5 ng/ml | lowest concentration giving appreciable/apparent induction of gene expression ([2]; clone S92G-5, 40 hr, luciferase): 0.5 nM | Luciferase Activity With Coum ([2]; stable clone 5, coumermycin 5 nM): 47,460 ± 447 Arbitrary Light Units/μg protein | Activation factor ([2]; stable clone 5, with vs without coumermycin 5 nM): 5.1 × 10^3 | Luciferase Activity With Coum ([2]; stable clone 8, coumermycin 5 nM): 52,408 ± 2,254 Arbitrary Light Units/μg protein | Activation factor ([2]; stable clone 8, with vs without coumermycin 5 nM): 1.5 × 10^3 | Luciferase Activity With Coum ([2]; stable clone 10, coumermycin 5 nM): 1,591 ± 100 Arbitrary Light Units/μg protein | Activation factor ([2]; stable clone 10, with vs without coumermycin 5 nM): 3.2 × 10^3 | Luciferase Activity With Coum ([2]; stable clone 18, coumermycin 5 nM): 7,446 ± 36 Arbitrary Light Units/μg protein | Activation factor ([2]; stable clone 18, with vs without coumermycin 5 nM): 5.8 × 10^3 | Luciferase Activity With Coum ([2]; stable clone 23, coumermycin 5 nM): 8,237 ± 204 Arbitrary Light Units/μg protein | Activation factor ([2]; stable clone 23, with vs without coumermycin 5 nM): over 10,000 | Activation factor ([2]; stable clone 23, with vs without coumermycin 5 nM, listed as Coumermycin): 1.4 × 10^4 | Luciferase Activity With Coum ([2]; stable clone 28, coumermycin 5 nM): 12,292 ± 550 Arbitrary Light Units/μg protein | Activation factor ([2]; stable clone 28, with vs without coumermycin 5 nM): 5.1 × 10^3 | Luciferase Activity With Coum ([2]; stable clone 34, coumermycin 5 nM): 46,980 ± 1,300 Arbitrary Light Units/μg protein | Activation factor ([2]; stable clone 34, with vs without coumermycin 5 nM): 5.8 × 10^3 | Luciferase Activity With Coum ([2]; stable clone 44, coumermycin 5 nM): 30,151 ± 2020 Arbitrary Light Units/μg protein | Activation factor ([2]; stable clone 44, with vs without coumermycin 5 nM): over 10,000 | Activation factor ([2]; stable clone 44, with vs without coumermycin 5 nM, listed as Coumermycin): 1.3 × 10^4 | Luciferase Activity With Coum ([2]; stable clone 45, coumermycin 5 nM): 1,909 ± 24 Arbitrary Light Units/μg protein | Activation factor ([2]; stable clone 45, with vs without coumermycin 5 nM): 1.6 × 10^3 | Luciferase Activity With Coum ([2]; stable clone 47, coumermycin 5 nM): 8,528 ± 43 Arbitrary Light Units/μg protein | Activation factor ([2]; stable clone 47, with vs without coumermycin 5 nM): 2.1 × 10^3 | fraction of apoptotic cells (K562-Bax cells): 45.5% | Bax expression (Western blot) (K562-Bax 65 cells): greatly induced | cytochrome c release from mitochondria (Western blot) (K562-Bax 65 cells): released in substantial amounts

CO[C@@H]1[C@@H](OC(N)=O)[C@@H](O)[C@H](Oc2ccc3c(O)c(NC(=O)c4ccc(O)c(CC=C(C)C)c4)c(=O)oc3c2C)OC1(C)C [novobiocin]
extent of switch-off of coumermycin-induced luciferase expression ([3]; 2.5 μM novobiocin added after 11 hr induction with 5 nM coumermycin): nearly completely switched off | suppression of coumermycin-induced luciferase expression ([3]; 5 μM novobiocin with 5 nM coumermycin, 40 hr): over 98% | cellular toxicity (293A cells): do not exert any detectable cellular toxicity | in vivo half-life [4]: 6 h | serum half-life ([4]; serum, in vivo): 6 h
